Laboratory results taken from patent US12129244B2, “Modulators of Mas-related G-protein receptor X2 and related products and methods” (Escient Pharmaceuticals, Inc., priority 2022, dated 2024).

Columns and labels:
[1] = Mouse Pharmacokinetics Studies (50 mg/kg oral gavage, plasma LC-MS/MS); type: in vivo; conditions: Male C57BL/6 mice, non-fasted; for AUC(0-t) / Cmax / Tmax: mouse; for Tmax: read-out: PK: Tmax
Protocol: Compounds were formulated in 5% DMSO, 5% Solutol, and 90% PBS without Ca and Mg (pH 7.4) at a concentration of 5 mg/mL. Male C57BL/6 mice (n=3/compound) were administered a 50 mg/kg dose of each compound by oral gavage under a non-fasted condition. Blood samples were collected via the saphenous vein onto K2-EDTA at 0.25, 0.5, 1, 2, 4, 8 and 24 hours after dosing, and plasma was prepared and stored at −80° C. until analysis. Plasma sample preparation for analysis was done by protein precipitation using acetonitrile (including Verapamil as an internal standard) followed by centrifugation. Compound concentrations were determined in extracted plasma using LC-MS/MS relative to a 12-point standard curve covering the 1 to 4000 nM range. Non-compartmental analysis using Phoenix WinNonlin was used to estimate pharmacokinetic parameters including area under the curve, clearance, and half-life. The administered dose was confirmed by analysis of residual dosing material by UPLC-UV relative to a single point calibration sample.

Human LAD2 cells = assay: Mast Cell Beta-Hexosaminidase Release Assay; type: cell-based; conditions: 500 nM Cortistatin-14, read-out: MRGPRX2 Antagonist Activity
Protocol: Human LAD2 cells (NIH) were maintained in an incubator at 37° C. with 5% CO2 and cultured in StemPro-34 serum-free media (Gibco 10639011) supplemented with 2 mM L-glutamine, 100 U/ml penicillin, […] streptomycin and 100 ng/ml SCF (Invitrogen PEP0860), at a concentration of 2-5×10^5 cells/mL, with hemidepletion every 1-2 weeks.
Cells were transferred to SCF-Free medium at 2.5×10^5 cells/mL and kept in an incubator overnight. On the day of the assay, cells were washed twice in Assay Buffer (final concentrations 10 mM HEPES, 137 mM NaCl, 5.6 mM D-glucose, 2.7 mM KCl, 1 mM MgCl, 1.8 mM CalCl2, 0.4 mM Na2HPO4·7H2O, 0.04% BSA, pH=7.4) and plated in a 96-well v-bottom plate at 20,000 cells per well in 80 μL Assay Buffer. Antagonist compounds solubilized at 10 mM in DMSO were diluted in Assay Buffer to 10× final desired concentrations as a 10-point curve (10 μM final top concentration with 1:3 serial dilutions) and 10 μL added per well. Plates were then incubated for 1 hour at 37° C. Agonists were diluted in Assay Buffer to 10× desired concentrations and 10 μL of the appropriate agonist added to each well. The final concentration of Cortistatin-14 (Tocris 3374) used in antagonist assays was 500 nM. Final concentrations of DMSO were kept consistent across the plate. Plates were then incubated in a warm air oven for 30 minutes at 37° C., followed by centrifugation at 4° C. for 5 minutes at 450×g. 50 μL supernatant from each well was then transferred to a 96-well flat bottom plate containing 100 μL substrate solution per well (3.5 mg/mL p-Nitrophenyl-N-acetyl-β-D-glucosaminide (Sigma 487052) in Citrate Buffer containing a final concentration of 40 mM Citric Acid, 20 mM Na2HPO4·7H2O, pH=4.5). To the cell pellets left in the remaining assay buffer, 150 μL 0.1% Triton-X-100 was then added to each well, resuspended by pipetting up and down, and 50 μL cell lysates transferred to a second 96-well flat bottom plate containing 100 μL substrate solution per well. Plates containing transferred supernatant and cell lysates were then incubated in a warm air oven for 90 minutes at 37° C. After incubation, 50 μL of 400 mM Glycine buffer (pH 10.7) was added into each well and the plate was read on a Molecular Devices SpectraMax iD5 plate reader (absorbance at 405 nm with reference filter at 620 nm). After background subtraction, the percentage degranulation (percent beta-hexosaminidase release) was calculated as 100×(supernatant values)/(supernatant+lysate values), followed by analysis using GraphPad Prism software to calculate an IC50 value for each compound.
The activity ranges are denoted as follows: “+++++” denotes antagonist activity <100 nM; “++++” denotes antagonist activity between 100 and 500 nM; “+++” denotes activity between 501 and 1000 nM; “++” denotes activity between 1001 and 2500 nM; and “+” denotes activity >2500 nM.

human MRGPRX2 = target: T1, human MRGPRX2 (Homo sapiens, UniProt Q96LB1); assay: MRGPRX2 activity: IP-One HTRF antagonist assay in CHO cells versus Cortistatin-14; type: cell-based; conditions: CHO cells stably expressing human MRGPRX2; versus 0.3 uM Cortistatin-14 agonist; IP-1 HTRF
T1 construct: expressed in transfected cells
T1 sequence (Q96LB1 1-330): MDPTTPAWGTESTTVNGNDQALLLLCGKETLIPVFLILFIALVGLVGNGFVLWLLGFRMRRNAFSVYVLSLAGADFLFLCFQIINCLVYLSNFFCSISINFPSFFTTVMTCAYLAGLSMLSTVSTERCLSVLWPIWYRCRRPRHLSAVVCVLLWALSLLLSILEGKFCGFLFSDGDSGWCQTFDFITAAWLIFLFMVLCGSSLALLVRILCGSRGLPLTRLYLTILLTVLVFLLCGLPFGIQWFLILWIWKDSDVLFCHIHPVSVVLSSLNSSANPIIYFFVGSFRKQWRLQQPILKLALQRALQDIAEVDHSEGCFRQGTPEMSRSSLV
Protocol: CHO cells stably transfected to express human MRGPRX2 were maintained in an incubator at 37° C. with 5% CO2 and grown in F12 (HAM) media with 10% fetal bovine serum (FBS), 1% Glutamax, 1% penicillin/streptomycin, 800 μg/mL Geneticin (G418), and 300 μg/mL Hygromycin B.
Cells were plated in a 384-well assay plate at 20,000 cells per well in 12 μL of Opti-MEM and kept in an incubator overnight. On the day of the assay, compounds solubilized at 10 mM in DMSO were added as a 10-point curve (30 uM final top concentration with 1:3 serial dilutions) using a Tecan D300E digital dispenser. Agonists were diluted in assay buffer (final concentrations of 5.7 mM Tris-HCl, 43 mM NaCl, 50 mM LiCl, pH=8) and 2 μL of the agonist Cortistatin-14 (CPC Scientific, catalog CORT-002) are added to each well. Final concentrations of agonists were 0.3 μM Cortistatin. Final concentrations of DMSO were kept consistent across the plate. Plates were incubated in the dark for 1 h at 37° C. and then for 1 h at room temperature. IP-1 standards and HTRF detection reagents were added according to the IP-One-Gq Kit purchased from Cisbio (part number 62IPAPEJ) and incubated in the dark for 1 h at room temperature. The plate was read on a Molecular Devices SpectraMax iD5 plate reader. The HTRF ratio was calculated from the raw data and graphed using GraphPad Prism to calculate an IC50 value for each compound.
The activity ranges are denoted as follows: “+++++” denotes antagonist activity <100 nM; “++++” denotes antagonist activity between 100 and 500 nM; “+++” denotes activity between 501 and 1000 nM; “[…]” denotes activity between 1001 and 2500 nM; and “+” denotes activity >2500 nM

Row | SMILES | AUC 0-24 [1] | AUC(0-t) [1] | Cmax [1] | Tmax [1] | IC50 (Human LAD2 cells) | IC50 (human MRGPRX2)
1 | COc1ccc(C(=O)N[C@@H]2CCC[C@H](Nc3cc(C(F)(F)F)nc4ccc(C)cc34)C2)cc1 [Example 1-3] | 83 µM·h | 83 µM·h | 13 µM | 0.83 h | 100 to 500 nM | < 100 nM
2 | CNc1ccc(C(=O)N[C@@H]2CCC[C@H](Nc3cc(C(F)(F)F)nc4ccc(F)cc34)C2)cc1 [Example 4-303] | – | – | – | – | < 100 nM | < 100 nM
3 | O=C(N[C@@H]1CCC[C@H](Nc2cc(C(F)(F)F)nc3ccc(Cl)cc23)C1)c1cccc2ncsc12 [Example 4-225] | – | – | – | – | < 100 nM | < 100 nM
4 | CC(C)(O)Cn1cc(C(=O)N[C@@H]2CCC[C@H](Nc3cc(C(F)(F)F)nc4ccc(Cl)cc34)C2)c(Cl)n1 [Example 31, 3-chloro-N-[(1R,3S)-3-[[6-chloro-2-(trifluoromethyl)-4-quinolyl]amino]cyclohexyl]-1-(2-hydroxy-2-methylpropyl)pyrazole-4-carboxamide] | 740 µM·h | 740 µM·h | 74 µM | 1.7 h | < 100 nM | < 100 nM
5 | N#Cc1nn(CC(F)(F)F)cc1C(=O)N[C@@H]1CCC[C@H](Nc2cc(C(F)(F)F)nc3ccc(Cl)cc23)C1 [Example 32, N-[(1R,3S)-3-[[6-chloro-2-(trifluoromethyl)-4-quinolyl]amino]cyclohexyl]-3-cyano-1-(2,2,2-trifluoroethyl)pyrazole-4-carboxamide] | 390 µM·h | 390 µM·h | 39 µM | 4.7 h | < 100 nM | < 100 nM
6 | N#Cc1cccc(C(=O)N[C@@H]2CCC[C@H](Nc3cc(C(F)(F)F)nc4ccccc34)C2)c1 [Example 3-4] | 230 µM·h | 230 µM·h | 30 µM | 3.3 h | 1000 to 2500 nM | –
7 | O=C(N[C@@H]1CCC[C@H](Nc2cc(C(F)(F)F)nc3ccc(Cl)cc23)C1)N1CC2(CC2)C1 [Example 8-9] | – | – | – | – | 100 to 500 nM | < 100 nM
8 | O=C(N[C@@H]1CCC[C@H](Nc2cc(C(F)(F)F)nc3ccccc23)C1)c1ccc(F)cc1 [Example 1-8] | 650 µM·h | 650 µM·h | 48 µM | 8 h | > 2500 nM | –
9 | COc1ccc(C(=O)N[C@@H]2CCC[C@H](Nc3cc(C(F)(F)F)nc4ccc(Cl)cc34)C2)cn1 [Example 4-414] | 140 µM·h | 140 µM·h | 11 µM | 4 h | < 100 nM | < 100 nM

Further lines, results first:

Row | AUC 0-24 [1] | AUC(0-t) [1] | Cmax [1] | Tmax [1] | IC50 (Human LAD2 cells) | IC50 (human MRGPRX2) | SMILES
10 | 640 µM·h | 640 µM·h | 61 µM | 1.3 h | < 100 nM | < 100 nM | Cn1cc(C(=O)N[C@@H]2CCC[C@H](Nc3cc(C(F)(F)F)nc4ccc(Cl)cc34)C2)cn1 [Example 4-400]
11 | – | – | – | – | < 100 nM | < 100 nM | O=C(N[C@@H]1CCC[C@H](Nc2cc(C(F)(F)F)nc3ccc(Cl)cc23)C1)c1ccc(B(O)O)cc1 [Example 4-430]
12 | – | – | – | – | < 100 nM | < 100 nM | CCS(=O)(=O)Nc1cccc(C(=O)N[C@@H]2CCC[C@H](Nc3cc(C(F)(F)F)nc4ccc(F)cc34)C2)c1 [Example 4-304]
13 | 78 µM·h | 78 µM·h | 6.1 µM | 8 h | < 100 nM | – | COc1ccc(C(=O)N[C@@H]2CCC[C@H](Nc3cc(C(F)(F)F)nc4ccc(Cl)cc34)C2)cc1 [Example 1, N-((1R,3S)-3-((6-chloro-2-(trifluoromethyl)quinolin-4-yl)amino)cyclohexyl)-4-methoxybenzamide]
14 | 140 µM·h | 140 µM·h | 36 µM | 1 h | < 100 nM | – | Nc1ncc(C(=O)N[C@@H]2CCC[C@H](Nc3cc(C(F)(F)F)nc4ccc(Cl)cc34)C2)cn1 [Example 15, 2-amino-N-[(1R,3S)-3-{[6-chloro-2-(trifluoromethyl)quinolin-4-yl]amino}cyclohexyl]pyrimidine-5-carboxamide]
15 | 150 µM·h | 150 µM·h | 13 µM | 0.5 h | < 100 nM | < 100 nM | O=C(N[C@@H]1CCC[C@H](Nc2cc(C(F)(F)F)nc3ccc(Cl)cc23)C1)c1cn(CC(F)(F)F)nc1Cl [Example 30, 3-chloro-N-((1R,3S)-3-((6-chloro-2-(trifluoromethyl)quinolin-4-yl)amino)cyclohexyl)-1-(2,2,2-trifluoroethyl)-1H-pyrazole-4-carboxamide]
16 | – | – | – | – | < 100 nM | < 100 nM | CS(=O)(=O)Nc1cccc(C(=O)N[C@@H]2CCC[C@H](Nc3cc(C(F)(F)F)nc4ccc(Cl)cc34)C2)c1 (stereo in doubt) [Example 14, N-((1R,3S)-3-((6-chloro-2-(trifluoromethyl)quinolin-4-yl)amino)cyclohexyl)-3-(methylsulfonamido)benzamide]
